Measured values as given in patent publication US20220009894A1, “1,2,3,4-TETRAHYDROQUINOXALINE DERIVATIVE, PREPARATION METHOD THEREFOR AND APPLICATION THEREOF” (Abbisko Therapeutics Co., Ltd., priority 2019, published 2022).
Values belong to the compound of their own block, whether it stands above or below them.

How the values were obtained:
RORγt = target: T1, RORγt (Homo sapiens, UniProt P51449); assay: RORγt cellular reporter gene detection assay; assay type: cell-based; conditions: 24 hrs; for EC50: HEK 293 cells co-transfected with pFN26A-RORγt-LBD and pG14.35, in presence of antagonist Ursolic acid, top concentration 50 μM; for Cellular Reporter Assay Amax: upper activation limit, HEK 293 cells, in presence of antagonist Ursolic acid;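 on Cellular Reporter Assay Amax: Ursolic Acid added as 5 µL of 20 µM medium per well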
T1 construct: The plasmid of pFN26A-RORγt-LBD and pG14.35 (Promega, Cat. No. E1370) were co-transfected into HEK 293 cells; expressed in transfected cells; host or cells: HEK 293 cells (Cat. No. GNHu18)
T1 sequence (P51449 269-508 limits assumed): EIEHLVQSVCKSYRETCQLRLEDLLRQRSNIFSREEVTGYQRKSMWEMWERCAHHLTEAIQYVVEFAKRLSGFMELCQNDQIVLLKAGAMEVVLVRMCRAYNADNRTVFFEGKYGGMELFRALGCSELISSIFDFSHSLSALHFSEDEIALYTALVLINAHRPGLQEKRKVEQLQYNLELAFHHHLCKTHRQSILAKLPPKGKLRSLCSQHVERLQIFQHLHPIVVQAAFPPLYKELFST
Method: II. RORγt Cellular Reporter Gene Detection Assay
In this experiment, RORγt Reporter Gene Detection method was used to evaluate the activation and specificity of compounds to RORγt in cells. The plasmid of pFN26A-RORγt-LBD and pG14.35 (Promega, Cat. No. E1370) were co-transfected into HEK 293 cells (Cat. No. GNHu18). The efficacy of compounds was evaluated with the presence of an antagonist Ursolic acid (Selleck, Cat. No. S2370-100 mg). The specific experimental process was as follow: • 1. The plasmids-co-transfected cells were inoculated into a 96-well plate (Corning, Cat. No 3610) in a fresh DMEM medium (Gibco, cat. No. 1773536) containing 10% fetal bovine serum (Gibco, Cat. No. 10099-141) at 30000 cells/40 μL/well; • 2. 5 μL of medium containing 20 μM Ursolic acid was added thereto; • 3. The dose effect was evaluated by a 4-fold dilution of the test compound starting from 50 μM; • 4. 5 μL of medium containing a compound concentration of 10-fold of its final test concentration was added; • 5. After the cells were incubated at 37° C. and 5% CO2 for 24 hrs, 50 μL of detection reagent was added to detect firefly fluorescence using PerkinElmerEnVision, and 50 μL of the second detection reagent was added to detect sea kidney fluorescence; • 6. A four-parameter curve simulated in GraphPad Prism was used to determine the concentration for 50% activation (EC50) and the upper activation limit (Amax) for each compound.

RORγt-LBD = target: T2, RORγt-LBD (Homo sapiens, UniProt P51449); assay: Time-resolved fluorescence resonance energy-transfer assay (TR-FRET), co-activator peptide recruitment; assay type: biochemical; parameters: TR-FRET Biochemical Amax: unit not given here; conditions: for EC50: His-RORγt-LBD 30 nM, SRC peptide 500 nM, agonistic activity, averages of one or more measurements, read-out: TR-FRET Biochemical EC50/; for TR-FRET Biochemical Amax: upper activation limit, His-RORγt-LBD, SRC peptide
T2 sequence (P51449 269-508 limits assumed): T1 sequence (P51449 269-508 limits assumed)
Excerpt: I. Time-Resolved Fluorescence Resonance Energy-Transfer Assay (TR-FRET)
This experiment was a screening experiment for RORγt nuclear receptor agonists based on TR-FRET technology. When His-labeled RORγt-LBD receptor binds to receptor agonists, it may increase the recruitment of biotin-labeled co-activator peptides. Europium-His-RORγt-LBD is indirectly labeled by donor (Eu) by binding to Eu-anti-His antibody. Once Eu is activated by an energy source (such as flashlight or laser), the energy will be transferred to the co-activator indirectly labeled by allophycocyanin by binding of allophycocyanin-streptavidin and biotin-labeled co-activator. • 1. 10× buffer (500 mM Tris-HCl, 500 mM KCl, and 10 mM Na-EDTA) was prepared, pH value was adjusted to 7.0. The buffer was stored at 4° C. for later use and was restored to normal temperature before experiment; • 2. The 10× buffer was diluted to 1× with pure water. Final concentration of 0.01% Triton X-100 and 1 mM DTT (dithiothreitol) were added to prepare the assay buffer; • 3. DMSO was used to prepare 1000× compound stock solution. The compound solution was serial-diluted in 5-fold for 7 concentrations from the top concentration of 1000 nM/10000 nM. Then the 10× compound solution was prepared with assay buffer. An amount of 2 μL was aliquoted into the 20 μL system; • 4. 5×RORγt-LBD protein solution was unfreezed, and a solution of 5× concentration was prepared with assay buffer to obtain a final concentration of 30 nM. The whole operation was carried out on ice; • 5. 5×SRC peptide was unfreezed, and a solution of 5× concentration was prepared with assay buffer to obtain a final concentration of 500 nM. The whole operation was carried out on ice; • 6. 4 μL/well of RORγt-LBD receptor was added into the testing wells of 384-well plate, and the same amount of assay buffer was added to the control wells of non-RORγt-LBD group; • 7. 2 μL of compound was added into each well of 384-well plate; • 8. 4 μL of SRC peptide was added into each well of 384-well plate; • 9. 2× Eu-anti-6× His/APC-Streptavidin was diluted with Lance detection buffer to a final concentration of 0.25 nM and 5 nM, respectively, and then 10 μL of 2× Eu-anti-6× His/APC-Streptavidin was added into each well of 384-well plate; • 10. The mixed solution was incubated at 4° C. overnight; • 11. On the morning of the next day, the 384-well plate was incubated at room temperature for 1 hr. Then the corresponding signal values were read with PerkinElmer EnVision at a wavelength of 665/615 […]. The agonistic activity of the corresponding compound was calculated with Graphpad Prism 7.0 software.

Structure (SMILES): C/C(=C\c1ccc2c(c1)N(S(=O)(=O)c1cccc(C(F)(F)F)c1)C[C@@H]1CN(C(=O)CC#N)CCN21)c1c(F)cccc1Cl [Example 30, (S,E)-3-(8-(2-(2-chloro-6-fluorophenyl)prop-1-en-1-yl)-6-((3-(trifluoromethyl)phenyl)sulfonyl)-1,2,4,4a, 5,6-hexahydro-3H-pyrazino [1,2-a]quinoxalin-3-yl)-3-oxopropanenitrile]
EC50 (RORγt): 404 nM
Cellular Reporter Assay Amax (RORγt): 4.0
EC50 (RORγt-LBD): 8.34 nM
TR-FRET Biochemical Amax (RORγt-LBD): 0.80

Structure (SMILES): C/C(=C\c1ccc2c(c1)N(S(=O)(=O)c1cccc(C(F)(F)F)c1)C[C@@H]1CN(C(N)=S)CCN21)c1c(F)cccc1Cl [Example 63, (S,E)-8-(2-(2-chloro-6-fluorophenyl)prop-1-en-1-yl)-6-((3-(trifluoromethyl)phenyl)sulfonyl)-1,2,4,4a,5,6-hexahydro-3H-pyrazino[1,2-a]quinoxaline-3-carbothioamide]
EC50 (RORγt): 308 nM
Cellular Reporter Assay Amax (RORγt): 5.0
EC50 (RORγt-LBD): 23.5 nM
TR-FRET Biochemical Amax (RORγt-LBD): 0.89

Structure (SMILES): O=C(O)CN1CCN2c3ccc(/C=C/c4c(Cl)cccc4C(F)(F)F)cc3N(S(=O)(=O)c3cccc(OC(F)(F)F)c3)C[C@@H]2C1 [Example 86, (S,E)-2-(8-(2-chloro-6-(trifluoromethyl)styryl)-6-((3-(trifluoromethoxy)phenyl)sulfonyl)-1,2,4,4a,5,6-hexahydro-3H-pyrazino[1,2-a]quinoxalin-3-yl)acetic acid]
EC50 (RORγt): 2340 nM
Cellular Reporter Assay Amax (RORγt): 12.6
EC50 (RORγt-LBD): 78.4 nM
TR-FRET Biochemical Amax (RORγt-LBD): 0.69

Structure (SMILES): C/C(=C\c1ccc2c(c1)N(S(=O)(=O)c1cccc(C(F)(F)F)c1)C[C@@H]1CN(C(C#N)(CO)CO)CCN21)c1c(F)cccc1Cl [Example 73, (S,E)-2-(8-(2-(2-chloro-6-fluorophenyl)prop-1-en-1-yl)-6-((3-(trifluoromethyl)phenyl)sulfonyl)-1,2,4,4a,5,6-hexahydro-3H-pyrazino[1,2-a]quinoxalin-3-yl)-3-hydroxy-2-(hydroxynethyl)propanenitrile]
EC50 (RORγt): 725 nM
Cellular Reporter Assay Amax (RORγt): 4.6
EC50 (RORγt-LBD): 40 nM
TR-FRET Biochemical Amax (RORγt-LBD): 0.96

Structure (SMILES): C/C(=C\c1ccc2c(c1)N(S(=O)(=O)c1cccc(C(F)(F)F)c1)C[C@@H]1CN(C(C)(C)C(=O)OC(C)(C)C)CCN21)c1c(F)cccc1Cl [Example 53, tert-butyl (S,E)-2-(8-(2-(2-chloro-6-fluorophenyl)prop-1-en-1-yl)-6-((3-(trifluoromethyl)phe-nyl)sulfonyl)-1,2,4,4a,5,6-hexahydro-3H-pyrazino[1,2-a]qui-noxalin-3-yl)-2-methylpropanoate]
EC50 (RORγt): ≥ 50000 nM
EC50 (RORγt-LBD): 256 nM
TR-FRET Biochemical Amax (RORγt-LBD): 0.55

Structure (SMILES): CC(C)(C(=O)O)N1CCN2c3ccc(/C=C/c4c(Cl)cccc4C(F)(F)F)cc3N(S(=O)(=O)c3cccc(C(F)(F)F)c3)C[C@@H]2C1 [Example 55, (S,E)-2-(8-(2-chloro-6-(trifluoro-methyl)styryl)-6-((3-(trifluoro-methyl)phenyl)sulfonyl)-1,2,4,4a,5,6-hexahydro-3H-pyrazino [1,2-a]quinoxalin-3-yl)-2-methylpropanoic acid]
EC50 (RORγt): 508 nM
Cellular Reporter Assay Amax (RORγt): 2.7
EC50 (RORγt-LBD): 46.6 nM
TR-FRET Biochemical Amax (RORγt-LBD): 0.78

Continued, values first:

EC50 (RORγt): 627 nM
EC50 (RORγt-LBD): 148 nM
Structure (SMILES): O=C(O)[C@@H]1CCN2c3ccc(-c4cc(F)cc(OC(F)F)c4)cc3N(S(=O)(=O)c3cccc(C(F)(F)F)c3)C[C@@H]2C1 [Example 117, (6aS,8R)-3-(3-(difluoromethoxy)-5-fluorophenyl)-5-((3-(trifluoro-methyl)phenyl)sulfonyl)-6,6a,7,8,9,10-hexahydro-5H-pyri-do[1,2-a]quinoxaline-8-car-boxylic acid]

EC50 (RORγt): 955 nM
Cellular Reporter Assay Amax (RORγt): 4.8
EC50 (RORγt-LBD): 170 nM
TR-FRET Biochemical Amax (RORγt-LBD): 0.69
Structure (SMILES): O=S(=O)(c1cccc(C(F)(F)F)c1)N1C[C@@H]2CC(O)CCN2c2ccc(-c3cc(F)cc(OC(F)F)c3)cc21 (stereo partly drawn) [Example 105, (6aS)-3-(3-(difluoromethoxy)-5-fluorophenyl)-5-((3-(trifluoromethyl)phenyl)sulfonyl)-6,6a,7,8,9,10-hexahydro-5H-pyrido[1,2-a]quinoxalin-8-ol]

EC50 (RORγt): 578 nM
Cellular Reporter Assay Amax (RORγt): 2.8
EC50 (RORγt-LBD): 13.6 nM
TR-FRET Biochemical Amax (RORγt-LBD): 0.81
Structure (SMILES): C/C(=C\c1ccc2c(c1)N(S(=O)(=O)c1cccc(C(F)(F)F)c1)C[C@@H]1CNCCN21)c1c(F)cccc1Cl [Example 10, (S,E)-8-(2-(2-chloro-6-fluorophenyl)prop-1-en-1-yl)-6-((3-(trifluoromethyl)phenyl)sulfonyl)-2,3,4,4a,5,6-hexahydro-1H-pyrazino[1,2-a]quinoxaline]

EC50 (RORγt): 238 nM
Cellular Reporter Assay Amax (RORγt): 2.6
EC50 (RORγt-LBD): 42.3 nM
TR-FRET Biochemical Amax (RORγt-LBD): 0.65
Structure (SMILES): CC(CO)(CO)N1CCN2c3ccc(-c4cc(F)cc(OC(F)F)c4)cc3N(S(=O)(=O)c3cccc(C(F)(F)F)c3)C[C@@H]2C1 [Example 72, (S)-2-(8-(3-(difluoromethoxy)-5-fluorophenyl)-6-((3-(trifluoro-methyl)phenyl)sulfonyl)-1,2,4,4a,5,6-hexahydro-3H-pyra-zino[1,2-a]quinoxalin-3-yl)-2-methylpropane-1,3-diol]

EC50 (RORγt): 178 nM
Cellular Reporter Assay Amax (RORγt): 4.3
EC50 (RORγt-LBD): 15.1 nM
TR-FRET Biochemical Amax (RORγt-LBD): 0.62
Structure (SMILES): C/C(=C\c1ccc2c(c1)N(S(=O)(=O)c1cccc(C(F)(F)F)c1)C[C@@H]1CN(S(C)(=O)=O)CCN21)c1c(F)cccc1Cl [Example 18, (S,E)-8-(2-(2-chloro-6-fluorophenyl)prop-1-en-1-yl)-3-(methylsulfonyl)-6-((3-(trifluoromethyl)phenyl)sulfonyl)-2,3,4,4a, 5,6-hexahydro-1H-pyrazino[1,2-a]quinoxaline]

EC50 (RORγt): 2150 nM
EC50 (RORγt-LBD): 809 nM
Structure (SMILES): O=S1(=O)CCN2c3ccc(-c4cc(F)cc(OC(F)F)c4)cc3N(S(=O)(=O)c3cccc(C(F)(F)F)c3)CC2C1 (stereo not shown) [Example 102, 8-(3-(difluoromethoxy)-5-fluorophenyl)-6-((3-(trifluoromethyl)phenyl)sulfonyl)-1,2,4,4a,5,6-hexahydro-[1,4]thiazino[4,3-a]quinoxaline 3,3-dioxide]
